Patent publication US20260028348A1, “MODULATORS OF TNF-ALPHA ACTIVITY” (Forward Therapeutics, Inc., priority 2023, published 2026)
pIC50: −log10 of the molar value.

Tested on: HEK Blue™ TNFα reporter cells
Assay: TNF-α Induced HEK Blue Cellular Assay
Assay type: cell-based
Conditions: TNF-α stimulated HEK Blue TNFα reporter cells, 24 hrs, secreted alkaline phosphatase (QUANTI-Blue, 620 nm)
Procedure: Test articles were diluted in DMSO and serially diluted into 384 well assay plate (Corning 3765), at final concentrations ranging from […] to 0.5 nM. HEK Blue™ TNFα reporter cells were added at a final density of 10,000 cell per well in assay media [DMEM (Gibco, cat #21063-029), 10% fetal bovine serum (ExcelBio, cat #FND500), 1% Penicillin-Streptomycin (Solarbio, cat #P1400-100]. TNF-α (R&D 210-TA-020/CF) was then added to the assay plate at a final concentration of […]. This plate was then incubated for 24 hrs at 37° C. and 5% CO2. Secreted alkaline phosphatase expression was then measured using QUANTI-Blue™(Invivogen), according to manufacturer instructions and read on an Envision microplate reader at 620 nm.
Inhibition data for test compound over a range of concentration was plotted as percentage inhibition of the test compound (100%=maximum inhibition). IC50 values were determined after correcting for background [(sample read-mean of low control)/(mean of high control-mean of low control)] whereby the low control is DMSO without stimulation and high control is DMSO with stimulation. The IC50 is defined as the concentration of test compound which produces […] and was quantified using the 4 parameter logistic equation to fit the data.

SMILES | pIC50
CN1C(=O)c2cccc(OC(F)F)c2[C@H]2C[C@@H]1c1nc3ccc(-c4cnc5c(c4)CCC5=O)cc3n12 [Example 8, (1R,11R)-18-(difluoromethoxy)-12-methyl-5-{7-oxo-5H,6H-cyclopenta[b]pyridin-3-yl}-2,9,12-triazapentacyclo[9.8.1.0^{2,10}.0^{3,8}.0^{14,19}]icosa-3(8),4,6,9,14(19),15,17-heptaen-13-one] | > 7.00
CN1C(=O)c2cccc(OC(F)F)c2[C@H]2C[C@@H]1c1nc3ccc(-c4ccc5c(c4)CC[C@H]5N)cc3n12 [Example 9, (1R,11R)-5-[(1R)-1-amino-2,3-dihydro-1H-inden-5-yl]-18-(difluoromethoxy)-12-methyl-2,9,12-triazapentacyclo[9.8.1.0^{2,10}.0^{3,8}.0^{14,19}]icosa-3(8),4,6,9,14(19),15,17-heptaen-13-one] | > 7.00
CN1C(=O)c2cccc(OC(F)F)c2[C@H]2C[C@@H]1c1nc3ccc(-c4ccc5c(c4)OCC[C@@H]5N)cc3n12 [Example 10, (1R,11R)-5-[(4S)-4-amino-3,4-dihydro-2H-1-benzopyran-7-yl]-18-(difluoromethoxy)-12-methyl-2,9,12-triazapentacyclo[9.8.1.0^{2,10}.0^{3,8}.0^{14,19}]icosa-3(8),4,6,9,14(19),15,17-heptaen-13-one] | > 7.00
N[C@H]1CCc2cc(-c3ccc4nc5n(c4c3)[C@@H]3C[C@H]5NC(=O)c4cccc(OC(F)F)c43)cc(F)c21 [Example 13, (1R,11R)-5-[(1S)-1-amino-7-fluoro-2,3-dihydro-1H-inden-5-yl]-18-(difluoromethoxy)-2,9,12-triazapentacyclo[9.8.1.0^{2,10}.0^{3,8}.0^{14,19}]icosa-3(8),4,6,9,14(19),15,17-heptaen-13-one] | > 7.00
N[C@H]1COc2cc(-c3ccc4nc5n(c4c3)[C@@H]3C[C@H]5N(C4CC4)C(=O)c4cccc(OC(F)F)c43)ccc21 [Example 14, (1R,11R)-5-[(3R)-3-amino-2,3-dihydro-1-benzofuran-6-yl]-12-cyclopropyl-18-(difluoromethoxy)-2,9,12-triazapentacyclo[9.8.1.0^{2,10}.0^{3,8}.0^{14,19}]icosa-3(8),4,6,9,14(19),15,17-heptaen-13-one] | > 7.00
CN1C(=O)c2cccc(OC(F)F)c2[C@H]2C[C@@H]1c1nc3ccc(-c4ccc5c(c4)CC[C@@H]5O)cc3n12 [Example 15, (1R,11R)-18-(difluoromethoxy)-5-[(1S)-1-hydroxy-2,3-dihydro-1H-inden-5-yl]-12-methyl-2,9,12-triazapentacyclo[9.8.1.0^{2,10}.0^{3,8}.0^{14,19}]icosa-3(8),4,6,9,14(19),15,17-heptaen-13-one] | > 7.00
CN1C(=O)c2cccc(OC(F)F)c2[C@H]2C[C@@H]1c1nc3ccc(-c4cnc5c(c4)CNC5=O)cc3n12 [Example 18, (1R,11R)-18-(difluoromethoxy)-12-methyl-5-{7-oxo-5H,6H-pyrrolo[3,4-b]pyridin-3-yl}-2,9,12-triazapentacyclo[9.8.1.0^{2,10}.0^{3,8}.0^{14,19}]icosa-3(8),4,6,9,14(19),15,17-heptaen-13-one] | 6.00 to 7.00
CN1C(=O)c2cccc(OC(F)F)c2[C@H]2C[C@@H]1c1nc3ccc(-c4cnc5c(c4)OCC[C@@H]5N)cc3n12 [Example 19, (1R,11R)-5-[(4S)-4-amino-2H,3H,4H-pyrano[3,2-b]pyridin-7-yl]-18-(difluoromethoxy)-12-methyl-2,9,12-triazapentacyclo[9.8.1.0^{2,10}.0^{3,8}.0^{14,19}]icosa-3(8),4,6,9,14(19),15,17-heptaen-13-one] | > 7.00
CN1Cc2cc(-c3ccc4nc5n(c4c3)[C@@H]3C[C@H]5N(C)C(=O)c4cccc(OC(F)F)c43)cnc2C1=O [Example 20, (1R,11R)-18-(difluoromethoxy)-12-methyl-5-{6-methyl-7-oxo-5H-pyrrolo[3,4-b]pyridin-3-yl}-2,9,12-triazapentacyclo[9.8.1.0^{2,10}.0^{3,8}.0^{14,19}]icosa-3(8),4,6,9,14(19),15,17-heptaen-13-one] | > 7.00
CN1C(=O)c2cccc(OC(F)F)c2[C@H]2C[C@@H]1c1nc3ccc(-c4ccc5c(c4)NC(=O)C5(C)O)cc3n12 (stereo partly drawn) [Example 21, (1R,11R)-18-(difluoromethoxy)-5-(3-hydroxy-3-methyl-2-oxo-1H-indol-6-yl)-12-methyl-2,9,12-triazapentacyclo[9.8.1.0^{2,10}.0^{3,8}.0^{14,19}]icosa-3(8),4,6,9,14(19),15,17-heptaen-13-one] | > 7.00
CN1C(=O)c2cccc(OC(F)F)c2[C@H]2C[C@@H]1c1nc3ccc(-c4ccc5c(c4)OCCC5(C)N)cc3n12 (stereo partly drawn) [Example 24, (1R,11R)-5-(4-amino-4-methyl-2,3-dihydro-1-benzopyran-7-yl)-18-(difluoromethoxy)-12-methyl-2,9,12-triazapentacyclo[9.8.1.0^{2,10}.0^{3,8}.0^{14,19}]icosa-3(8),4,6,9,14(19),15,17-heptaen-13-one] | > 7.00
CN1C(=O)c2cccc(OC(F)F)c2[C@H]2C[C@@H]1c1nc3cc(F)c(-c4cnc5c(c4)CCC5(C)N)cc3n12 (stereo partly drawn) [Example 27, (1R,11R)-5-{7-amino-7-methyl-5H,6H-cyclopenta[b]pyridin-3-yl}-18-(difluoromethoxy)-6-fluoro-12-methyl-2,9,12-triazapentacyclo[9.8.1.0^{2,10}.0^{3,8}.0^{14,19}]icosa-3(8),4,6,9,14(19),15,17-heptaen-13-one; formic acid] | > 7.00
[2H]C([2H])([2H])N1C(=O)c2cccc(OC(F)F)c2[C@H]2C[C@@H]1c1nc3ccc(-c4cnc5c(c4)OCC[C@@H]5N)cc3n12 [Example 30, (7R,14R)-11-((S)-4-amino-3,4-dihydro-2H-pyrano[3,2-b]pyridin-7-yl)-1-(difluoromethoxy)-6-(methyl-d3)-6,7-dihydro-7,14-methanobenzo[f]benzo[4,5]imidazo[1,2-a][1,4]diazocin-5(14H)-one] | > 7.00
CN1C(=O)c2cccc(OC(F)F)c2[C@H]2C[C@@H]1c1nc3ccc(-c4ccc5c(c4)NC(=O)C5(C)N)cc3n12 (stereo partly drawn) [Example 31, (7R,14R)-11-(3-amino-3-methyl-2-oxoindolin-6-yl)-1-(difluoromethoxy)-6-methyl-6,7-dihydro-7,14-methanobenzo[f]benzo[4,5]imidazo[1,2-a][1,4]diazocin-5(14H)-one] | > 7.00
[2H]C([2H])([2H])N1C(=O)c2cccc(OC(F)F)c2[C@H]2C[C@@H]1c1nc3ccc(-c4cnc5c(c4)OCC5(C)O)cc3n12 (stereo partly drawn) [Example 44, (7R,14R)-1-(difluoromethoxy)-11-(3-hydroxy-3-methyl-2,3-dihydrofuro[3,2-b]pyridin-6-yl)-6-(methyl-d3)-6,7-dihydro-7,14-methanobenzo[f]benzo[4,5]imidazo[1,2-a][1,4]diazocin-5(14H)-one] | > 7.00
[2H]C([2H])([2H])N1C(=O)c2cccc(OC(F)F)c2[C@H]2C[C@@H]1c1nc3ccc(-c4cnc5c(c4)COCC5(C)N)cc3n12 (stereo partly drawn) [Example 45, (7R,14R)-11-(8-amino-8-methyl-7,8-dihydro-5H-pyrano[4,3-b]pyridin-3-yl)-1-(difluoromethoxy)-6-(methyl-d3)-6,7-dihydro-7,14-methanobenzo[f]benzo[4,5]imidazo[1,2-a][1,4]diazocin-5(14H)-one] | 6.00 to 7.00
[2H]C([2H])([2H])N1C(=O)c2cccc(OC(F)F)c2[C@H]2C[C@@H]1c1nc3ccc(-c4cnc5c(c4)OCCC5O)cc3n12 (stereo partly drawn) [Example 48, (7R,14R)-1-(difluoromethoxy)-11-(4-hydroxy-3,4-dihydro-2H-pyrano[3,2-b]pyridin-7-yl)-6-(methyl-d3)-6,7-dihydro-7,14-methanobenzo[f]benzo[4,5]imidazo[1,2-a][1,4]diazocin-5(14H)-one] | > 7.00
